Experimental data: publication PMC2972656 (Bioorganic & medicinal chemistry, 2010)
Structures can show the parent of a compound that is named as a salt.

How the values were obtained:
other receptors = assay: NIMH supported PDSP screen; assay type: binding
[1] = tested on: alcohol preferring (P) rats; conditions: 15–60 mg/kg, comparable with chlordiazepoxide; cited from earlier work
α1β3γ2 GABAA/BzR [2] = biological target: T1, α1β3γ2 GABAA/BzR (Homo sapiens, UniProt P14867+P18507); conditions: binding; cited from earlier work
α1β3γ2 GABAA/BzR [3] = biological target: T1, α1β3γ2 GABAA/BzR; assay: [3H]flunitrazepam competition binding, α1β3γ2; conditions: for selectivity for the α1β3γ2 subtype: enantiomeric sec-butyl esters
α5β3γ2 GABAA/BzR = α5β3γ2 GABAA/BzR (Homo sapiens, UniProt P18507+P31644); assay: [3H]flunitrazepam competition binding, α5β3γ2
α2β3γ2 GABAA/BzR = α2β3γ2 GABAA/BzR (Homo sapiens, UniProt P18507+P47869); assay: [3H]flunitrazepam competition binding, α2β3γ2
BzR = assay: Binding to BzR, overall statement; set-up: species or system human; conditions: Boc protection at position-9

In the case of `CCCOc1cc2c(cn1)[nH]c1ccccc12` [2(3-PBC), 3-propoxy-β-carboline hydrochloride], the “interactions at other receptors” value (other receptors) is given as “neither βCCT, 3PBC, nor WYS8 exhibited significant interactions at other receptors”, the “effects in the plus maze” value [1] is given as “anxiolytic effects” and the “selectivity for the α1 site over the α5 subtype” value (α1β3γ2 GABAA/BzR [2]) is given as “over 150 fold”. The “selectivity for the α1 subtype over the α2 and α3 receptors” value (α1β3γ2 GABAA/BzR [2]) was 10 fold.

With `C#Cc1ccc2[nH]c3cnc(C(=O)OC(C)(C)C)cc3c2c1` [7(WYS8), 6-Ethynl-9H-β-carboline-3-carboxylic acid t-butyl ester] the “interactions at other receptors” value (other receptors) was “neither βCCT, 3PBC, nor WYS8 exhibited significant interactions at other receptors”.

With `C[C@@H](OC(=O)c1cc2c(cn1)[nH]c1ccccc12)C(F)(F)F` [compound 22, (R)-1,1,1-Trifluoroisopropyl β-carboline-3-carboxylate] the “selectivity for α1 isoforms over α5 isoforms” value (α1β3γ2 GABAA/BzR [3]; binding) was roughly 70 fold.

For `CC[C@H](C)OC(=O)c1cc2c(cn1)[nH]c1ccccc12` [compound 23, (S)-β-Carboline-3-carboxylic acid sec-butyl ester], the “selectivity for the α1β3γ2 subtype” value (α1β3γ2 GABAA/BzR [3]; binding) was roughly 4 fold and the Ki (α5β3γ2 GABAA/BzR) was 1440 nM.

In the case of `CC[C@@H](C)OC(=O)c1cc2c(cn1)[nH]c1ccccc12` [compound 24, (R)-β-Carboline-3-carboxylic acid sec-butyl ester], the “selectivity for the α1β3γ2 subtype” value (α1β3γ2 GABAA/BzR [3]; binding) is reported as roughly 4 fold and the Ki (α2β3γ2 GABAA/BzR) is reported as 32.5 nM.

For `c1ccc(COc2cc3c4ccccc4nc-3c[nH]2)cc1` [compound 35, 3-benzyloxy β-carboline], the Ki (α1β3γ2 GABAA/BzR [3]) was 830 nM.

With `CC(C)COc1cc2c(cn1)[nH]c1ccccc12` [compound 37] the Ki (α5β3γ2 GABAA/BzR) was no less than 1000 nM.

For `C#Cc1ccc2c(c1)c1cc(C(=O)OC(C)(C)C)ncc1n2C(=O)OC(C)(C)C` [compound 40], the “binding to BzR” value (BzR) was “did not bind to BzR at all”.

With `CC(C)(C)OC(=O)c1cc2c3cc(I)ccc3n(C(=O)OC(C)(C)C)c2cn1` [compound 41] the “binding to BzR” value (BzR) was “did not bind to BzR at all”.
